Source: PMC11672294, “The Antipsychotic Drug Aripiprazole Suppresses Colorectal Cancer by Targeting LAMP2a to Induce RNH1/miR‐99a/mTOR‐Mediated Autophagy and Apoptosis” (Advanced Science, 2024)
Where a name gives a salt, the structure may show the parent alone. Starred links: 1 amine or outer side, 2 acyl side, 3 side chain; linkers in the order of their positions; H or OH if unused. Positions of bridges follow the written chain, without caps; N, C: chain ends. Non-standard residues stand in square brackets, D forms with d. Residues, ends and D or L forms follow the SMILES beside them. *: point of attachment. pTerphenylCO(4''-OnC5H11) = CCCCCOc1ccc(-c2ccc(-c3ccc(C(=O)*)cc3)cc2)cc1; Orn(4R-OH,5R-OH) = O=C([C@H](C[C@@H](O)[C@@H](O)N[*:3])N[*:1])[*:2]; hTyr(3S-OH,4S-OH) = N[C@H](C(=O)O)[C@H](O)[C@@H](O)c1ccc(O)cc1; Pro(3S-OH,4S-Me) = C[C@H]1CN[C@H](C(=O)O)[C@H]1O; Hyp = O=C(O)[C@@H]1C[C@@H](O)CN1

system: HT29; details: 72 h, relative to DMSO, 10 µM, Relative cell viability (%)
Description: To investigate the key signaling pathways and biological processes involved in CRC progression, we analyzed the National Center for Biotechnology Information Gene Expression Omnibus (GEO) dataset GSE115313, which included 42 CRC and paired normal tissues (Figure 1A). […] Next, we performed an Annexin V‐fluorescein isothiocyanate (FITC)/propidium iodide (PI) staining assay to determine the effect of aripiprazole on apoptosis in CRC cells. […] A) Principal component analysis of GEO dataset (GSE115313), which includes 42 CRC and paired normal tissues. B) Gene Ontology pathway analysis of the DEPs between CRC and paired normal tissues. […] D) Schematic diagram for identifying anticancer drugs amongst an US Food and Drug Administration‐approved small‐molecule library (616 compounds) using WST‐1 assay. E) HT29 cells were treated with the 616 drugs (10 µM) individually or with dimethyl sulfoxide for 72 h, followed by WST‐1 assay. […] J) Mice bearing HT29‐derived tumor xenografts were intragastrically administered with aripiprazole (10 or 20 mg kg^−1) once every 2 d, n = 6 mice/group. […] Bars, SD; ^* p < 0.05; ^** p < 0.01; ^*** p < 0.001; ns, no significant difference. The WST‐1 Cell Proliferation and Cytotoxicity Assay Kit (Beyotime Biotechnology, Shanghai, China) was used to measure cell viability, as described previously.^[ [10] ^] CRC cells were seeded into 96‐well plates and treated with different drug concentrations. Following that, WST‐1 was added to the plate and incubated with the cells for 2 h, at 37 °C. Absorbance at the wavelength of 450 nm was measured using an automated microplate spectrophotometer (BioTek Instruments, Winooski, VT, USA).

In order of falling “Relative cell viability (%)” value:
1. CCOC(=O)C1=C(COCCN)NC(C)=C(C(=O)OC)C1c1ccccc1Cl (centres unmarked) [Amlodipine]  88.54%
2. CCOC(=O)C1=C(COCCN)NC(C)=C(C(=O)OC)C1c1ccccc1Cl (centres unmarked) [Amlodipine besylate (Norvasc)]  75.42%

same assay, conditions: 72 h, relative to DMSO; 10 µM

In order of rising “Relative cell viability (%)” value:
1. C=CC(=O)Nc1cc(Nc2nccc(-c3cn(C)c4ccccc34)n2)c(OC)cc1N(C)CCN(C)C [AZD9291]  0.8547%
2. CN(C)CCN1C(=O)c2cccc3cc(N)cc(c23)C1=O [Amonafide]  8.879%
3. Cn1ncc(Cl)c1-c1cc(C(=O)N[C@H](CN)Cc2cccc(F)c2)sc1Cl [Afuresertib (GSK2110183)]  13.68%
4. COc1ccc(-c2ccc3cc(C(=O)O)ccc3c2)cc1[C@]12C[C@H]3C[C@H](C[C@H](C3)C1)C2 [Adapalene]  16.67%
5. CN(C)C/C=C/C(=O)Nc1cc2c(Nc3ccc(F)c(Cl)c3)ncnc2cc1O[C@H]1CCOC1 [Afatinib (BIBW2992) Dimaleate]  20.09%
6. CC(=O)N1CCN(c2ccc(OC[C@@H]3CO[C@@](Cn4ccnc4)(c4ccc(Cl)cc4Cl)O3)cc2)CC1 (racemic) [Ketoconazole]  43.15%
7. CN1C[C@@H]2c3ccccc3Oc3ccc(Cl)cc3[C@H]2C1 (racemic) [Asenapine]  50.93%
8. CCCC(CCC)C(=O)O[C@H]1C[C@H]2CC[C@@H](C1)[N+]2(C)C [Anisotropine Methylbromide]  55.76%
9. CN(C)c1nc(N(C)C)nc(N(C)C)n1 [Altretamine]  57.17%
10. COC(=O)C1=CCCN(C)C1 [Arecoline]  59.22%
11. COc1cc(C)c(/C=C/C(C)=C/C=C/C(C)=C/C(=O)O)c(C)c1C [Acitretin]  60.28%
12. COc1ccc2cccc(CCNC(C)=O)c2c1 [Agomelatine]  61.84%
13. c1ccc(CN(CC2=NCCN2)c2ccccc2)cc1 [Antazoline HCl]  63.94%
14. CCC[S+]([O-])c1ccc2[nH]c(NC(=O)OC)nc2c1 (centres unmarked) [Albendazole Oxide]  65.25%
15. S=C(NCc1ccc2c(c1)OCO2)N1CCN(c2ncnc3c2oc2ccccc23)CC1 [Amuvatinib (MP-470)]  66.51%
16. N=C(N)NC(=O)c1nc(Cl)c(N)nc1N [Amiloride HCl]  66.53%
17. Nc1c(Br)cc(Br)cc1CN[C@H]1CC[C@H](O)CC1 [Ambroxol HCl]  67.96%
18. CC1(C)S[C@@H]2[C@H](NC(=O)[C@H](N)c3ccc(O)cc3)C(=O)N2[C@H]1C(=O)O [Amoxicillin]  67.96%
19. Cc1ccc(S(=O)(=O)NC(=O)NN2CC3CCC[C@@H]3C2)cc1 (stereo in doubt) [Gliclazide]  70.87%
20. CCCCCOc1ccc(-c2ccc(-c3ccc(C(=O)N[C@H]4C[C@@H](O)[C@@H](O)NC(=O)[C@@H]5[C@@H](O)[C@@H](C)CN5C(=O)[C@H]([C@@H](C)O)NC(=O)[C@H]([C@H](O)[C@@H](O)c5ccc(O)cc5)NC(=O)[C@@H]5C[C@@H](O)CN5C(=O)[C@H]([C@@H](C)O)NC4=O)cc3)cc2)cc1 [Anidulafungin (LY303366)] ({pTerphenylCO(4''-OnC5H11)}-[Orn(4R-OH,5R-OH)]T[Hyp][hTyr(3S-OH,4S-OH)]T[Pro(3S-OH,4S-Me)]; lactam 1-C)  71.21%
21. Clc1ccc2c(c1)C(N1CCNCC1)=Nc1ccccc1O2 [Amoxapine]  73.94%
22. COC(=O)C1=C(C)NC(C)=C(C(=O)O[C@@H]2CCCN(Cc3ccccc3)C2)[C@@H]1c1cccc([N+](=O)[O-])c1 (racemic) [Benidipine HCl]  75.78%
23. CCN1CCCC1CNC(=O)c1cc(S(=O)(=O)CC)c(N)cc1OC (centres unmarked) [Amisulpride]  77.41%
24. CCN(CCCc1ccccc1)CCCc1ccccc1 [Alverine Citrate]  78.16%
25. COc1ccc2c(c1)c(CC(=O)OCC(=O)O)c(C)n2C(=O)c1ccc(Cl)cc1 [Acemetacin]  81.07%
26. Nc1nc2c(ncn2COCCO)c(=O)[nH]1 [Aciclovir]  89.41%
27. COc1ccc(C(=O)N2CCCC2=O)cc1 [Aniracetam]  91.43%
28. Nc1nccs1 [Aminothiazole]  93.03%
29. CC(=O)OCC[N+](C)(C)C [Acetylcholine Chloride]  93.22%
30. Cc1cnc(C(=O)O)c[n+]1[O-] [Acipimox]  94.49%
31. COc1ccc(C[C@@H](C)NC[C@H](O)c2ccc(O)c(NC=O)c2)cc1 (racemic) [Formoterol Hemifumarate]  95.63%
32. COc1cc2c(cc1OC)[C@H]1CC(=O)[C@H](CC(C)C)CN1CC2 (racemic) [Tetrabenazine (Xenazine)]  97.03%
33. CCOC(=O)[C@H]1O[C@@H]1C(=O)N[C@@H](CC(C)C)C(=O)NCCC(C)C [Aloxistatin]  100.9%
34. Cn1c(=O)cc(N2CCC[C@@H](N)C2)n(Cc2ccccc2C#N)c1=O [Alogliptin]  101.5%
35. CC(C)n1c(/C=C/[C@@H](O)C[C@@H](O)CC(=O)O)c(-c2ccc(F)cc2)c2ccccc21 (racemic) [Fluvastatin Sodium]  103.4%
36. C[C@H]1O[C@H](O[C@H]2[C@H](O)[C@@H](O)[C@@H](O[C@H]3[C@H](O)[C@@H](O)C(O)O[C@@H]3CO)O[C@@H]2CO)[C@H](O)[C@@H](O)[C@@H]1N[C@H]1C=C(CO)[C@@H](O)[C@H](O)[C@H]1O (some centres unmarked) [Acarbose]  103.9%
37. CC(NC(C)(C)C)C(=O)c1cccc(Cl)c1 (centres unmarked) [Amfebutamone HCl]  104.9%
38. NC12CC3CC(CC(C3)C1)C2 [Amantadine HCl]  105.5%
39. NC(=O)c1ncn([C@@H]2O[C@H](CO)[C@@H](O)[C@H]2O)c1N [Acadesine]  105.9%
40. COCCCOc1cc(C[C@@H](C[C@H](N)[C@@H](O)C[C@H](C(=O)NCC(C)(C)C(N)=O)C(C)C)C(C)C)ccc1OC [Aliskiren Hemifumarate]  106.1%
41. N#CC1(c2ccc(NC(=O)c3cccnc3NCc3ccncc3)cc2)CCCC1 [Apatinib]  110.8%
42. CN(C)CCc1c[nH]c2ccc(CS(=O)(=O)N3CCCC3)cc12 [Almotriptan Malate]  113.8%
43. Cc1c(-c2ccnn2C)cc(C(=O)NCc2ccc(S(C)(=O)=O)cn2)c(=O)n1-c1cccc(C(F)(F)F)c1 [Alvelestat (AZD9668)]  116.2%
44. CCN(CC)CCOC(=O)C(c1ccccc1)c1ccccc1 [Adiphenine HCl]  119.6%
45. CC1CNc2c(cccc2S(=O)(=O)N[C@@H](CCCNC(=N)N)C(=O)N2CC[C@@H](C)C[C@@H]2C(=O)O)C1 (some centres unmarked) [Argatroban]  123.2%
46. C[N+](C)(C)CC(O)CC(=O)[O-] (racemic) [DL-Carnitine HCl]  125.5%
47. COC(c1ccccc1)(c1ccccc1)[C@H](Oc1nc(C)cc(C)n1)C(=O)O [Ambrisentan]  132.6%
48. C=CCc1cc(OC)c(O)c(C(=O)NCCO)c1 [Alibendol]  149.2%
